Assay results from patent publication US12134623B1, “2,16-dioxapentacyclo[7.7.5.01,21.03,8.010,15]henicosa3(8),10,12,14-tetraene-7,20-dione as an antimicrobial compound” (KING FAISAL UNIVERSITY, priority 2023, dated 2024).

What was measured:
Assay type in all cases: cell-based
Details in all cases: after 10, 20, 40 and 60 minutes at all dilutions 1:100, 1:200, 1:400, 1:800
Escherichia coli = experiment: Antimicrobial activity by agar dilution, Escherichia coli
Experimental: (§1) The antibacterial properties of the synthesized compound (of 2,16-dioxapentacyclo[7.7.5.0^1,21.0^3,8.0^10,15]henicosa3(8), 10,12,14-tetraene-7,20-dione) were studied by the method of agar dilution. Test solutions of each compound was prepared in concentration of 1% using dimethylformamide as a solvent. Then they were diluted in physiological solution to obtain the final experimental dilutions of 1:100, 1:200, 1:400, and 1:800. The effect of these substances were compared with furacillin in a controllable study. The testing microbes used were gram positive bacteria Staphylococcus aureus, gram negative bacteria Pseudomonas aeruginosa, Escherichia coli, and Candida albicans fungus. The experiments used for this survey were meat-pentonlu agar (EPA) for cultivation of bacteria and Saburo environment for fungi. Each experiment used 1 mL of test solution on each plate for 500 minutes. Two drops of emulsified with microbes feel were added. All experimental samples were taken from the agar after 10, 20, 40, 60 minutes in the environment on the basis of Patrk planted. Bacteria were cultivated at a temperature of 37° C. for 1 day and the mushroom was kept in a thermostat for […] at a temperature of 28° C. Then results were checked. Those of control and the antimicrobial activity for the synthesized compounds are listed in Table 1 below, with furacillin serving as a reference.

Staphylococcus aureus = experiment: Antimicrobial activity by agar dilution, Staphylococcus aureus
Experimental: as §1

Pseudomonas aeruginosa = experiment: Antimicrobial activity by agar dilution, Pseudomonas aeruginosa
Experimental: as §1

Candida albicans = experiment: Antimicrobial (antifungal) activity by agar dilution, Candida albicans
Experimental: as §1

Measured: inhibition activity compared with the inhibition activity of Furacilin

O=C1CCCC2=C1C1c3ccccc3OC3(CCCC(=O)C13)O2 (stereo not shown) [2,16-dioxapentacyclo[7.7.5.0^1,21.0^3,8.0^10,15]henicosa3(8), 10,12,14-tetraene-7,20-dione]
higher inhibition activity: all assays above
